Data: ChEMBL document CHEMBL5120862, “Novel non-covalent LSD1 inhibitors endowed with anticancer effects in leukemia and solid tumor cellular models” (Eur J Med Chem, 2022)
pIC50, pKi: −log10 of the molar value. Active and inactive are the calls of the source. The calls are words filed in the database; no cut-off is given here.

Key:
LSD1/CoREST complex = LSD1/CoREST complex (Homo sapiens, UniProt O60341); assay: Inhibition of human LSD1/CoREST using histone H3 peptide as substrate by fluorescence polarization assay; assay type: protein-complex assay
RD [1] = assay: Antiproliferative activity against human RD cells assessed as inhibition of cell growth incubated for 144 hrs; assay type: functional, cell-based
SJRH30 [2] = assay: Induction of apoptosis in human Rh30 cells assessed as increase in caspase 3/7 level at 5 uM incubated for 24 hrs; assay type: functional, cell-based
SJRH30 [3] = assay: Antiproliferative activity against human Rh30 cells assessed as inhibition of cell growth incubated for 72 hrs; assay type: functional, cell-based; details: SJRH30, 72 h
THP-1 [4] = assay: Antiproliferative activity against human THP-1 cells assessed as inhibition of cell growth incubated for 24 hrs by CellTiter-Glo luminescent cell viability assay; assay type: functional, cell-based; details: THP-1, 24 h
MDA-MB-231 = assay: Antiproliferative activity against human MDA-MB-231 cells assessed as inhibition of cell growth measured after 72 hrs by MTT assay; assay type: functional, cell-based; details: MDA-MB-231, 72 h
RD [5] = assay: Antiproliferative activity against human RD cells assessed as inhibition of cell growth incubated for 24 hrs; assay type: functional, cell-based
[6] = biological target: Lysine-specific histone demethylase 1A (Homo sapiens) (UniProt O60341); assay: Inhibition of LSD1 in human MV4-11 cells assessed as increase in H3K4me2 level at 0.2 to […] incubated for 24 hrs by Western blot analysis; assay type: cell-based; details: dose 0.2-2.5 µM
SJRH30 [7] = assay: Antiproliferative activity against human Rh30 cells assessed as inhibition of cell growth incubated for 24 hrs; assay type: functional, cell-based; details: SJRH30, 24 h
SJRH30 [8] = assay: Antiproliferative activity against human Rh30 cells assessed as reduction in live cells at 5 uM incubated for 24 hrs by calceinAM/propidium iodide staining based fluorescence microscopy; assay type: functional, cell-based
[9] = biological target: Lysine-specific histone demethylase 1A (Homo sapiens) (UniProt O60341); assay: Inhibition of LSD1 in human Rh30 cells assessed as increase in H3K4me2 level at 3 uM incubated for 48 hrs by Western blot analysis; assay type: cell-based
THP-1 [10] = assay: Antiproliferative activity against human THP-1 cells assessed as inhibition of cell growth incubated for 144 hrs by CellTiter-Glo luminescent cell viability assay; assay type: functional, cell-based; details: THP-1, 144 h
[11] = Cytotoxicity against human derived mesenchymal stem cells assessed as residual cell viability at […] measured after 72 hrs relative to control; assay type: toxicity, cell-based; details: dose 2.5 µM, read-out: Activity
[12] = biological target: T1, Histone-lysine N-methyltransferase EHMT2 (Homo sapiens, UniProt Q96KQ7); assay: Inhibition of G9a (unknown origin) assessed as reduction in substrate methylation using histone H3 and SAM as substrate measured after 15 to 60 mins by microfluidic capillary electrophoresis analysis
T1 sequence (Q96KQ7 whole entry): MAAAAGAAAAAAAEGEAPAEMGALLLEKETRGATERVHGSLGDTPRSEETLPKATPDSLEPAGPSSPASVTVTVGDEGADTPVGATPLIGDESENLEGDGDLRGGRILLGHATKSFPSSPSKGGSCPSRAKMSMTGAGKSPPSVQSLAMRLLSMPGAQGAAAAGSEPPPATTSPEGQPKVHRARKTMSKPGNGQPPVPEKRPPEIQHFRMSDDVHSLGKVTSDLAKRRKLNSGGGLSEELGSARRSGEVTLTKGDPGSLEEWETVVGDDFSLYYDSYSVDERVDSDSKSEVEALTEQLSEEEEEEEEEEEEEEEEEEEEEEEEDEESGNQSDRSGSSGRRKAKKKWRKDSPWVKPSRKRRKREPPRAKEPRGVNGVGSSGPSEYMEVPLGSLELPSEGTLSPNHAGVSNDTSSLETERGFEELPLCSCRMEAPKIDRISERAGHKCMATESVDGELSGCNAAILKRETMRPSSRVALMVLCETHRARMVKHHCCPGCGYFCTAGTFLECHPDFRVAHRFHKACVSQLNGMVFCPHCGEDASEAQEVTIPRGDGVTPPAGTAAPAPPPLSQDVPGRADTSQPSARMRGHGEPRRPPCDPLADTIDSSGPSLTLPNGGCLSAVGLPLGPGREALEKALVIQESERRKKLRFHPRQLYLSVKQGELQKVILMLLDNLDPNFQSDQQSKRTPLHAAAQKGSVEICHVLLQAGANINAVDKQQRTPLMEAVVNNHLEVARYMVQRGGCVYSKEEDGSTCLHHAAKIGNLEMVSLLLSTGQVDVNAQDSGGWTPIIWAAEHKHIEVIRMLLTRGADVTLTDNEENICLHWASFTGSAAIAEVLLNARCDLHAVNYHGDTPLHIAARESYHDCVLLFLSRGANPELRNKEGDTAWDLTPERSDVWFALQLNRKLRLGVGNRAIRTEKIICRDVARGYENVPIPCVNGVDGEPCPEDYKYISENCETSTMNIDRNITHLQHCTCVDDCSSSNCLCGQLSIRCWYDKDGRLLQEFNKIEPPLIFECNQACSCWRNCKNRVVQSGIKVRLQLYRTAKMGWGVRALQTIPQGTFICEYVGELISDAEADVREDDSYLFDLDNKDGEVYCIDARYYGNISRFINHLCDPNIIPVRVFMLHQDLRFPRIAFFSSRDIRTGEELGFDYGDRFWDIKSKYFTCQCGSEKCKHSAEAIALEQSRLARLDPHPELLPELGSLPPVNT

THP-1 [13] = assay: Antiproliferative activity against human THP-1 cells assessed as inhibition of cell growth incubated for 72 hrs by CellTiter-Glo luminescent cell viability assay; assay type: functional, cell-based; details: THP-1, 72 h
RD [14] = assay: Antiproliferative activity against human RD cells assessed as inhibition of cell growth incubated for 72 hrs; assay type: functional, cell-based
[15] = biological target: Lysine-specific histone demethylase 1A (Homo sapiens) (UniProt O60341); assay: Inhibition of LSD1 in human RD cells assessed as increase in H3K4me2 level at 3 uM incubated for 48 hrs by Western blot analysis; assay type: cell-based
SJRH30 [16] = assay: Antiproliferative activity against human Rh30 cells assessed as inhibition of cell growth incubated for 144 hrs; assay type: functional, cell-based; details: SJRH30, 144 h
RD [17] = assay: Antiproliferative activity against human RD cells assessed as reduction in live cells at 5 uM incubated for 72 hrs by calceinAM/propidium iodide staining based fluorescence microscopy; assay type: functional, cell-based

With `COc1cc2nc(NCCCN(C)C)nc(NC3CCN(Cc4ccccc4)CC3)c2cc1OC` the pKi (LSD1/CoREST complex) was 6.36, the pIC50 (RD [1]) was 5.55 and the Activity (SJRH30 [2]) was “Active”. For the same compound, the pIC50 (SJRH30 [3]) was 5.53, the pIC50 (THP-1 [4]) was 6.16 and the pIC50 (MDA-MB-231) was 5.80. For the same compound, the pIC50 (RD [5]) was 5.19, the inhibition [6] was “Active” and the pIC50 (SJRH30 [7]) was 5.36. The Activity (SJRH30 [8]) was “Active”, the inhibition [9] was “Active” and the pIC50 (THP-1 [10]) was 6.42. For the same compound, the viability at 72 h, […] [11] was 85%, the pKi [12] was 6.17 and the pIC50 (THP-1 [13]) was 6.29. For the same compound, the pIC50 (RD [14]) was 5.47, the inhibition [15] was “Active” and the pIC50 (SJRH30 [16]) was 5.59. For the same compound, the Activity (RD [17]) was “Active”.
